US20190167771A1, “CONTROL ANGIOGENESIS BY REGULATING PHOSPHORYLATION OF SERYL-tRNA SYNTHETASE (SerRS)” (The Scripps Research Institute, priority 2016, published 2019)

What was measured:
ATM/ATR kinases = test: In vitro phosphorylation of recombinant SerRS by DNA-activated HEK293 nuclear extract (p-SQ immunoblot, 32P-labelling); type: biochemical, human; conditions: recombinant his6-tagged protein, p-SQ antibody and 32P-labelling
Protocol: FIGS. 1A-G show SerRS is important for hypoxia induced VEGFA expression and is phosphorylated by ATM and ATR kinases under hypoxia at serine 101 and serine 241 residues. In FIG. 1A, HEK293 cells were transfected with shRNAs targeting SerRS (sh-SerRS) or GlyRS (sh-GlyRS), or nonspecific control shRNA (sh-Control). 48 hours post-transfection, cells were cultured under hypoxia or normoxia conditions for 12 hours. Immunoblot of cell lysates with anti-SerRS, anti-GlyRS and anti-β-actin antibodies (left). VEGFA expression levels were measured by qRT-PCR (right) and relative induction of VEGFA transcription under hypoxia were plotted (right, inset) (means±SEM. from four independent experiments; *P<0.01, **P<0.0001). […] The conserved ATM/ATR substrate motif residues are underlined. In FIG. 1C, recombinant his6-tagged human SerRS or GlyRS were incubated with γ-^32P-ATP and HEK293 cell nuclear extracts which are treated with or without double-stranded DNA oligoes mimicking DNA damage stimuli to activate ATM/ATR/DNA-PK kinases. Recombinant proteins were then purified by Ni-NTA beads and subjected to SDS-PAGE and autoradiography. In FIG. 1D, recombinant his6-tagged two human aminoacyl tRNA synthetases (AARS): TyrRS and GlyRS, wild type SerRS, or SerRS mutants with single or double substitutions of serine 101 and serine 241 with alanine (S101A, S241A, and S101A/S241A) were treated as described in FIG. 1C and phosphorylated recombinant proteins were immunoblotted with antibodies as indicated after purification by Ni-NTA beads. In FIG. 1E, HEK293 cells were cultured under hypoxia for 3, 6, and 12 hours. Phosphorylated SerRS was immunoblotted with specific anti-p-SQ antibody after SerRS proteins were immunoprecipitated (IP). Cell lysates were immunoblotted with indicated antibodies for known ATM and ATR substrates (Chk1 and P53). In FIG. 1F, Flag-tagged wild type and mutant SerRS constructs were transfected into HEK293 cells. 24 hours post-transfection, cells were treated with hypoxia stress for 12 hours and ectopically expressed SerRS was then purified by immunoprecipitation (IP) using anti-Flag antibody and immunoblot (IB) with anti-P-SQ antibody and anti-Flag antibody. In FIG. 1G, HEK293 cells were transfected with siRNA against ATM (si-ATM) or ATR (si-ATR) and treated with hypoxia stress for 12 hours. Phosphorylated SerRS were immunoblotted as described in FIG. 1E. […]
For protein purification, human SerRS and its mutant genes were subeloned into pET-20b(+) plasmid (Novagen, Darmstadt, Germany) and overexpressed in E. coli. […] The purities of the recombinant proteins were assessed by Coomassie blue staining following 4-12% Mini Gel (ThermoFisher Scientific) electrophoresis. Protein concentrations were determined using Bradford protein assay (BioRad, Hercules, Calif., USA). […]

3B11 endothelial cells = test: Matrigel plug angiogenesis assay with stably transfected 3B11 cells; type: in vivo; conditions: 3B11 cells stably transfected with mouse SerRS gene, C3H/HeJ mice, 14 days
Protocol: In FIG. 4A, mouse 3B11 endothelial cells were stably transfected with mouse wild type SerRS or mutant SerRS and the expression of SerRS were examined by immunoblot with anti-SerRS antibody and quantified by the density of the bands. In FIGS. 4B-C, Matrigel plug angiogenesis assay was performed with stably transfected 3B11 cells in C3H/HeJ mice. Matrigel plugs (dash lines enclosed regions) excised 14 days after implantation were analyzed by immunohistochemistry for CD31 (FIG. 4B) and microvessel density was quantified (FIG. 4C) (n=10-15).
A total of 10^6 of stably transfected 3B11 cells were resuspended in 100 μl of DMEM medium supplemented with 10% FBS and then mixed with 200 μl of ice-cold matrigel (BD Biosciences, San Jose, Calif., USA) liquid on ice. The 300 μl of cell and matrigel mixture was injected subcutaneously into a flank of C3H/HeJ mice (two injection sites per mouse and 5-6 mice in each group) (Jackson Laboratory). After inoculation for 14 days, the matrigel plugs were excised and frozen in Tissue-Tek® OCT compound for cryostat sectioning. All the mouse experiments were conducted according to the guidelines established by the Institutional Animal Care and Use Committee (IACUC) at The Scripps Research Institute, IACUC approval protocol number 13-0003.
5-μm sections from freshly frozen tumor xenograft and matrigel plugs were treated with acetone and 3% H2O2 to block endogenous peroxidase. After 3-5 times wash and goat serum block, the sections were incubated with an anti-CD31 antibody (1:3000; Cell Signaling Technology) overnight at 4° C. The blood vessels were counted in 5-10 random viable fields (120×) in tumor xenograft samples and microvessel density in matrigel plugs was quantified by measuring the CD31 staining density using Image J software. To detect the hypoxia, we incubated the slides with anti-HIF1α antibody (1:100; Novus Biologicals).
A matrigel plug angiogenesis assay was used. […] At the same time, the microvasculature in the plug was evaluated by CD31 immuno-staining.

Substance	level of phosphorylation in vitro (ATM/ATR kinases)	microvessel formation in the matrigel plug (CD31) (3B11 endothelial cells)
SerRS^S101A/S241A: phosphorylation-deficient human SerRS double mutant, serine 101 and 241 to alanine, SEQ ID NO: 4 (mouse version in matrigel assay)	almost had no phosphorylation	strongly suppressed the microvessel formation
SerRS^S101D/S241D: SerRS with double substitutions of S101 and S241 with aspartic acid, mimics the phosphorylated SerRS		did not suppress microvascular formation
SerRS^WT: wildtype human seryl-tRNA synthetase protein, SEQ ID NO: 1 (mouse wild type used in the 3B11 matrigel assay)	robust phosphorylation	did not suppress microvascular formation
